In US20240307390A1, “METHODS AND COMPOSITIONS FOR CANCER TREATMENT BY TARGETING AXL SIGNALING” (Sanford Burnham Prebys Medical Discovery Institute, priority 2023, published 2024):

Experiments:
[1] = tested on: AXL signaling; assay: Immunoblots of AXL signaling proteins in MDA-MB-231 cells; assay type: cell-based, human; details: FIG. 4K
Excerpt: (§1) FIGS. 4E and 4F represent ChIP analysis of Flag-EYA2 (FIG. 4E) and Flag-SIX1 (FIG. 4F) binding Gas6 promoter in MDA-MB-231 cells transfected with the indicated siRNAs. FIGS. 4G-4I show GAS6 expression in MCF7 cells transfected with indicated vectors (FIG. 4G) and MDA-MB-231 cells expressing indicated shRNAs (FIG. 4H) or treated with vehicle or EYA2i (FIG. 4I). FIGS. 4J and 4K show immunoblots of AXL signaling proteins in MDA-MB-231 cells transfected with control or FBXO7 siRNA (FIG. 4J) or treated with vehicle or EYA2i (FIG. 4K).
In line with the role of GAS6 as an AXL ligand, FBXO7 KD decreased total AXL and phospho-AXLTyr702 and decreased AXL surface expression (FIGS. 4J and 4M), indicating inhibition of AXL signaling. […] GAS6 expression rescued the decreased total and phospho-AXLTyr702 in FBXO7 KD cells (FIG. 4L). Consistent with a role of SCFFBXW7 in antagonizing FBXO7 functions, FBXW7 KD rescued the decreased GAS6 and attenuated AXL signaling in FBXO7 KD cells (data not shown). […] Expression of proinflammatory cytokine suppressor and AXL signaling effector SOCS1 partially rescued the increased IFNα/β, CXCL9/10, and HLA-A/B induced by FBXO7 KD (FIG. 4O). Further, GAS6 expression rescued the increased HLA-A/B/C surface expression on FBXO7 KD cells (data not shown).

[2] = tested on: MDA-MB-231-luc breast tumors; assay: Orthotopic MDA-MB-231-luc breast tumors in immunocompromised mice; assay type: in vivo; details: partially rescued by GAS6 expression
Excerpt: (§2) FIGS. 6A and 6B show growth curves (FIG. 6A) and images (FIG. 6B) of control, FBXO7 KD, and FBXO7 KD+GAS6 MDA-MB-231 breast tumors in immunocompromised mice. […] FIGS. 6E and 6F show growth curves (FIG. 6E) and images (FIG. 6F) of control and GAS6-expressing MDA-MB-231-luc breast tumors in immunocompromised mice treated with vehicle or EYA2i.

[3] = tested on: cancer cells; assay: Cancer cell viability upon doxorubicin treatment; assay type: cell-based; details: partially rescued by GAS6 expression, FIG. 5H
Excerpt: FIGS. 5A and 5B show a gap closure assay of control, FBXO7 KD, and FBXO7 KD+GAS6 MDA-MB-231 (FIG. 5A) and BT-549 (FIG. 5B) cells. FIGS. 5C and 5D show the migration (FIG. 5C) and invasion (FIG. 5D) of indicated control, FBXO7 KD, and FBXO7 KD+GAS6 cells. […] FIGS. 5G and 5H show viabilities of indicated control, FBXO7 KD, or FBXO7 KD+GAS6 (FIG. 5G) or vehicle or EYA2i treated (FIG. 5H) cells upon doxorubicin treatment.
FBXO7 KD diminished mesenchymal cancer cell migration and invasion in in vitro assays (data not shown). These FBXO7 KD effects were largely rescued by GAS6 expression (FIGS. 5A-5D). […] Again, these phenotypes were largely rescued by GAS6 expression (FIGS. 5E and 5F). […] Consistent with an antagonistic role of SCFFBXW7, FBXW7 KD partially rescued the reduced migration of FBXO7 KD cells and enhanced EYA2i sensitivity (data not shown).

[4] = tested on: GAS6 in MDA-MB-231 cells; assay: GAS6 expression and protein in MDA-MB-231 cells; assay type: cell-based, human
Excerpt: as §1
To determine how the FBXO7/EYA2-SCFFBXW7 axis maintains mesenchymal and immune evasion phenotypes of cancer cells, chromatin IP sequencing (ChIP-seq) profiles of EYA2 binding in control and FBXO7 KD cells (FIGS. 4A and 4B) were compared. FBXO7 KD decreased EYA2 binding at various genomic regions, including promoters, exons, and introns (data not shown). […] GAS6 was chosen for further analysis because of the link between AXL and mesenchymal phenotypes in TNBC cells. ChIP confirmed that EYA2 and SIX1 bound the Gas6 promoter and binding was diminished by KD of FBXO7 or co-transcriptional counterpart (FIGS. 4E and 4F). EYA2-2A also bound the Gas6 promoter (data not shown), indicating independence of CPD phosphorylation. Further, FBXO7 bound the Gas6 promoter and FBXO7 or ΔF-FBXO7 expression stimulated EYA2 binding (data not shown). […]

[5] = tested on: 4T1-luc breast tumors; assay: 4T1-luc TNBC tumors in syngeneic immunocompetent mice; assay type: in vivo
Protocol: as §2
Immunocompetent mice bearing 4T1-luc TNBCs were treated with vehicle or EYA2i and isotype IgG (control) or anti-PD-1 antibody (FIG. 6H).

[6] = tested on: mesenchymal and immune-stimulatory genes, cell morphology; assay: Gene expression and cell morphology after EYA2 Tyr phosphatase inhibitor treatment; assay type: cell-based; details: similar to EYA2 KD (flat, cuboidal morphology, decreased mesenchymal, induced immune-stimulatory genes); data not shown
Excerpt: EYA2 KD induced a flat, cuboidal morphology, decreased mesenchymal gene expression, and induced immune-stimulatory genes (FIGS. 2G-2I), phenocopying FBXO7 KD. […] Expression of WT EYA2, but not Tyr phosphatase mutant EYA2D274N or SIX binding mutant EYA2A532R, largely rescued the decreased mesenchymal and increased immune-stimulatory genes in FBXO7 KD cells (data not shown).

[7] = tested on: FBXO7-EYA2 binding; assay: Co-IP of FBXO7-EYA2 binding in treated cells; assay type: cell-based; details: treatment of cells; data not shown
Protocol: To gain insight into how FBXO7 maintains mesenchymal phenotypes and immune evasion of cancer cells, protein mass spectrometry was conducted to identify putative interacting proteins (FIG. 2A). Eyes Absent Homolog 2 (EYA2), a co-activator of the SIX family of homeobox transcription factors with Tyr phosphatase activity, was one of the most abundant FBXO7-interacting proteins (FIG. 2B). Immunoprecipitation (IP) and in vitro pull-down assays confirmed that FBXO7 interacted with EYA2, but not directly with co-transcriptional partner SIX1 (FIGS. 2C and 2D). EYA2's transactivation domain (AD, aa1-252) but not EYA domain (ED, aa253-538), which interacts with SIX proteins, was required for FBXO7 interaction (FIG. 2E). FBXO7's F-box motif was dispensable for EYA2 interaction (FIG. 2F).
SCFFBXW7 substrate recognition is generally triggered by GSK3β-mediated phosphorylation of the substrate CPD. Recombinant SCFFBXW7 bound a synthetic peptide corresponding to phosphorylated EYA2 CPD (FIG. 3I). […] To determine if EYA2 degradation was regulated by GSK3β, we first confirmed endogenous GSK3 β interacted with EYA2 in vivo by IP (data not shown). […] GSK3β stimulated SCFFBXW7-mediated polyubiquitylation of EYA2 in in vitro ubiquitylation reactions (FIG. 3J). […] Therefore, EYA2 is degraded by SCFFBXW7 in a GSK3β-dependent manner.

[8] = tested on: EYA2; assay: EYA2 steady-state level, stability and polyubiquitylation in cells; assay type: cell-based; details: data not shown
Excerpt: Input proteins are shown. […] FIG. 3C represents a putative EYA2 CPD motif across species and compared with other SCF^FBXW7 substrates. […] FIGS. 3F and 3G represent WT and Flag-EYA2-2A stability in MDA-MB-231 cells (FIG. 3F) and endogenous EYA2 in WT and Fbxw7 KO HCT116 cells (FIG. 3G). […] FIG. 3K represents flag-EYA2 stability in MDA-MB-231 cells treated with vehicle (DMSO) or GSK3βi. […] Input proteins shown. […] FIG. 3O represents a model of FBXO7 inhibition of GSK3β-SCFFBXW7-mediated degradation of EYA2.
FBXW7 expression enhanced EYA2 K48-linked but not K63-linked polyubiquitylation (FIG. 3D), indicating SCFFBXW7 regulated EYA2 degradation. IP confirmed EYA2's CPD was required for FBXW7 binding (FIG. 3E). In contrast, FBXO7-EYA2 binding was independent of EYA2's CPD (data not shown). […] In isogenic WT and Fbxw7 knockout (KO) cell lines, the steady-state level and stability of EYA2 increased and polyubiquitylation decreased in the absence of Fbxw7 (FIGS. 3G, 3H).
SCFFBXW7 substrate recognition is generally triggered by GSK3β-mediated phosphorylation of the substrate CPD. Recombinant SCFFBXW7 bound a synthetic peptide corresponding to phosphorylated EYA2 CPD (FIG. 3I). […] To determine if EYA2 degradation was regulated by GSK3β, we first confirmed endogenous GSK3 β interacted with EYA2 in vivo by IP (data not shown). […]

| SMILES | AXL signaling [1] | lung metastases ([2]; MDA-MB-231-luc) | tumor cell autonomous growth ([2]; orthotopic MDA-MB-231-luc breast tumors) | sensitivity of cancer cells to doxorubicin treatment [3] | total and secreted GAS6 protein ([4]; data not shown) | GAS6 expression ([4]; mesenchymal MDA-MB-231 cells, FIG. 4I) | intertumoral infiltration of CD8+T and NK cells ([5]; flow cytometric and IHC analyses of 4T1-luc tumors) | H-2Kd MHC class I alloantigen surface expression on 4T1-luc tumor cells ([5]; flow cytometry, FIG. 6L) | 4T1-luc tumor growth / antitumor response ([5]; immunocompetent mice, FIGS. 6H and 6I) | effects on gene expression and cell morphology [6] | FBXO7-EYA2 binding [7] | EYA2 levels [8] |
| --- | --- | --- | --- | --- | --- | --- | --- | --- | --- | --- | --- | --- |
| O=C(N/N=C/c1ccc(Sc2ccccn2)o1)c1cccc(F)c1 [EYA2i, MLS000544460] | suppressed AXL signaling | diminished | diminished | sensitized cancer cells to doxorubicin treatment | decreased total and secreted GAS6 protein | decreased GAS6 expression | stimulated | increased | modestly reduced | induced similar effects on gene expression and cell morphology | – | – |
| NS(=O)(=O)OC[C@@H]1C[C@@H](n2ccc3c(N[C@H]4CCc5ccccc54)ncnc32)C[C@@H]1O [MLN4924] | – | – | – | – | – | – | – | – | – | – | did not disrupt FBXO7-EYA2 binding | increased EYA2 levels |
